Counter-ions that a name gives are not always drawn.
test system: MTT (mouse pheochromocytoma); experiment: IC50 of cell viability (ATP content); conditions: (24 or 48 h)
Method in brief: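 MTT mouse pheochromocytoma cells in white 1536-well plates were treated for 24 or 48 hrs with library compounds at 8 final concentrations from 0.5 nM to 46 µM. ATP content was measured with CellTiter-Glo luminescence, using positive-control wells as 100% and DMSO wells as 0%. IC50 came from a four-parameter logistic fit.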

Row | SMILES | IC50 of cell viability [µM]
1 | Cc1noc(N[S+](=O)([O-])c2ccc(N)cc2)c1C [Sulfisoxazole diolamine] | > 46
2 | Nc1nc(N)c2nc(-c3ccccc3)c(N)nc2n1 [Triamterene] | > 46
3 | COC[C@@H](c1ccc(C(F)(F)F)cc1)N1CCN(C2(C)CCN(C(=O)c3c(C)ncnc3C)CC2)C[C@@H]1C [vicriviroc maleate] | > 46
4 | O=C(O)Cc1ccccc1Oc1ccc(Cl)cc1Cl [Fenclofenac] | > 46
5 | CC1(C)C(/C=C/C=C/C=C/C=C2\N(CCCCS(=O)(=O)[O-])c3ccc4ccccc4c3C2(C)C)=[N+](CCCCS(=O)(=O)[O-])c2ccc3ccccc3c21 [INDOCYANINE GREEN] | > 46
6 | C[C@H](N)C(=O)c1ccccc1 [(S)-(-)-Cathinone] | > 46
7 | CC1(C)S[C@@H]2[C@H](N)C(=O)N2[C@@H]1C(=O)O [6-AMINOPENICILLANIC ACID] | > 46
8 | O=C(CCl)c1ccc(Oc2ccc(C(=O)CCl)cc2)cc1 [Clofenoxyde] | > 46
9 | CCCc1ncc(C[n+]2ccccc2C)c(N)n1.Cl.[Cl-] [Amprolium hydrochloride] | > 46
10 | Nc1nc(O)c2ncn(CCC(CO)CO)c2n1 [PENCICLOVIR SODIUM] | > 46
11 | N=C(Nc1ccccc1)Nc1ccccc1 [1,3-Diphenylguanidine] | > 46
12 | CN(C)CCO [Deanol] | > 46
13 | Oc1ncc(N(CCCl)CCCl)c(O)n1 [URACIL MUSTARD] | > 46
14 | CCNC(C)Cc1cccc(C(F)(F)F)c1 (stereo unspecified) [DEXFENFLURAMINE] | > 46
15 | COP(=S)(OC)Oc1ccc(SC)c(C)c1 [Fenthion (Baytex)] | > 46
16 | CO/N=C(\C(=O)NC1C(=O)N2C(C(=O)OCOC(=O)C(C)(C)C)=C(/C=C\c3scnc3C)CSC12)c1csc(N)n1 (stereo unspecified) [CEFDITORIN PIVOXIL] | > 46
17 | CC1=CC2=C(O1)C(=C3OC(=O)\C=C(C)/C3=C2)C [Trioxsalen] | > 46
18 | C=C(NCc1ccccc1)c1ccccc1O | > 46
19 | O=C(OC[C@@H]1O[C@@](O)(COC(=O)c2cccnc2)[C@H](OC(=O)c2cccnc2)[C@H]1OC(=O)c1cccnc1)c1cccnc1 [NICOFURANOSUM] | > 46
20 | CC/1=C(\CCN2CCC(CC2)=C(C3=CC=C(F)C=C3)C4=CC=C(F)C=C4)C(=O)N/5\C=C/SC5=N1 [Ritanserin] | > 46
21 | COC(=O)C\1=C(C)\N\C(=C(/[C@@H]1C2=CC(=CC=C2)[N+]([O-])=O)C(=O)O[C@@H]3CCCN(C3)CC4=CC=CC=C4)C (racemic) [rac Benidipine Hydrochloride] | > 46
22 | c1cnc2cc3c(cc2n1)C1CNCC3C1 [Varenicline] | > 46

Row | SMILES | IC50 of cell viability [µM]
23 | COC1=CC=C2[N]3CCN(C)\C4=N\CCC(=C34)C2=C1 [Metralindole] | > 46
24 | C=CCN1CC[C@]23CCCCC2[C@H]1Cc1ccc(O)cc13 (stereo partly specified) [LEVALLORPHAN] | > 46
25 | O=C(O)c1cccc(-c2noc(-c3ccccc3F)n2)c1 [PTC 124] | > 46
26 | CN1C(=O)[C@@H](NC(=O)c2cc3ccccc3[nH]2)N=C(c2ccccc2)c2ccccc21 [DEVAZEPIDUM] | > 46
27 | O=C(OCCOCCO)c1ccccc1Nc1cccc(C(F)(F)F)c1 [Etofenamate] | > 46
28 | CCN(CC)[C@@H](C)CN1c2ccccc2Sc2ccccc21 [Ethopropazine hydrochloride] | > 46
29 | O=C(OCC1(COC(=O)c2cccnc2)CCCC(COC(=O)c2cccnc2)(COC(=O)c2cccnc2)C1O)c1cccnc1 [Nicomolol] | > 46
30 | NC(=O)c1ncn(C2OC(CO)C(O)C2O)c1N (stereo unspecified) [AICAR] | > 46
31 | C[C@H]1CNCCc2ccc(Cl)cc21 [Lorcaserin] | > 46
32 | CC(Cc1ccc2c(c1)OCO2)NO (stereo unspecified) [(?)-N-Hydroxy-3,4-methylenedioxyamphetamine] | > 46
33 | CCN(CC)N(O)N=O.CCNCC [2-(N,N-DIETHYLAMINO)DIAZENOLATE-2-OXIDE DIETHYLAMONIUM SALT] | > 46
34 | OCC(CO)NC1C[C@](O)(CO)[C@@H](O)[C@H](O)[C@H]1O (stereo partly specified) [voglibose] | > 46
35 | C=C[C@@]1(C)C[C@H](OC(=O)CSC(C)(C)CNC(=O)[C@@H](N)C(C)C)[C@@]2(C)C(C)CC[C@@]3(CCC(=O)[C@@H]32)[C@H](C)[C@H]1O (stereo partly specified) [VALNEMULIN HYDROCHLORIDE] | > 46
36 | CN(C)CCc1c[nH]c2ccc(C[S+](=O)([O-])N3CCCC3)cc12 [ALMOTRIPTAN] | > 46
37 | CCCCCCC(=O)CCCCCC/C=C/C[C@@H](O)[C@H](O)[C@@](N)(CO)C(=O)O | > 46
38 | C/C=C1/NN(CCCN2CCN(c3cccc(Cl)c3)CC2)C(=O)N1CCOc1ccccc1 [Nefazodone hydrochloride] | > 46
39 | CCCCCCCCCCCCCCCC[N+](C)(C)CCN(Cc1ccc(OC)cc1)c1ncccn1 [Thonzonium bromide] | > 46
40 | CC(=O)OO [PERACETIC ACID] | > 46
41 | Nc1cc(N2CCCCC2)nc(N)[n+]1[O-] [MINOXIDIL] | > 46
42 | NC(N)=Nc1nc(CSCC/C(N)=N/[S+](N)(=O)[O-])cs1 [FAMOTIDINE] | > 46
43 | C[N+]1(C)[C@@H]2CC[C@@H]1CC(OC(=O)[C@@H](CO)c1ccccc1)C2.O=[N+]([O-])[O-] (stereo partly specified) [Methylatropine nitrate] | > 46

The next lines start with the values.

Row | IC50 of cell viability [µM] | SMILES
44 | > 46 | C[N+](C)(C)CCO [Choline bromide]
45 | > 46 | CC(C)NC[C@H]1CCc2cc(CO)c([N+](=O)[O-])cc2N1 [Oxamniquine]
46 | > 46 | CC(=O)Oc1ccc(C2(c3ccc(OC(C)=O)cc3)C(=O)Nc3ccccc32)cc1 [Oxyphenisatin Acetate]
47 | > 46 | CCCOc1cc(N)ccc1C(=O)OCCN(CC)CC [Propoxycaine hydrochloride]
48 | > 46 | CC(=O)OC/C=C(C)/C=C/C=C(C)/C=C/C1=C(C)CCCC1(C)C [Retinyl acetate]
49 | > 46 | CCCCCCCCCCCCCCCCCCO [STEARLY ALCOHOL]
50 | > 46 | CO [Methanol]
51 | > 46 | Cc1nnc(SCC2=C(C(=O)O)N3C(=O)[C@@H](NC(=O)Cn4cnnn4)[C@H]3SC2)s1 [Cefazolin]
52 | > 46 | CN(C)[C@H]\1[C@@H]2[C@@H](O)[C@H]3\C(=C(O)/[C@]2(O)C(=O)\C(=C1O)C(N)=O)C(=O)C4=C(C=CC=C4O)[C@@]3(C)O [Oxytetracycline HCl]
53 | > 46 | C[C@@H]1C[C@@H]2[C@@H]3C[C@@H](F)\C4=C\C(=O)\C=C/[C@]4(C)[C@@]3(F)[C@H](O)C[C@@]2(C)[C@@]1(O)C(=O)CO [Flumethasone]
54 | > 46 | CN(C)CCC(c1ccc(Cl)cc1)c1ccccn1 (stereo unspecified) [dexchlorpheniramine]
55 | > 46 | CCCCc1ncc(/C=C(\Cc2cccs2)C(=O)O)n1Cc1ccc(C(=O)O)cc1 [Eprosartan mesylate]
56 | > 46 | Cc1cccc(C)c1N(CCCc1cccnc1)C(=O)[C@@H](C)N [Ro 22-9194]
57 | > 46 | CC(C)c1ccc2oc3nc(N)c(C(=O)O)cc3c(=O)c2c1 [AMLEXANOX]
58 | > 46 | CC(=O)N[C@@H](Cc1ccc(O)cc1)C(=O)O [N-ACETYL-TYROSINE]
59 | > 46 | CCCC[C@H]1C(=O)N(c2ccccc2)N(c2ccc(O)cc2)C1=O [Oxyphenbutazone]
60 | > 46 | CC(C)(c1ccc(O)cc1)c1ccc(O)cc1 [Bisphenol A]

Row | IC50 of cell viability [µM] | SMILES
61 | > 46 | CN1N(C(=O)/C=C1/C)C2=CC=CC=C2 [Phenazone]
62 | > 46 | CN[C@H]1[C@@H](O)[C@@H](NC)[C@@H]2O[C@]3(O)C(=O)C[C@@H](C)O[C@H]3O[C@H]2[C@H]1O [Spectinomycin dihydrochloride]
63 | > 46 | C=C1N[C@]2(C(=O)COC(C)=O)[C@@H](C[C@H]3[C@@H]4CCC5=CC(=O)C=C[C@]5(C)[C@H]4[C@@H](O)C[C@@]32C)O1 [DEFLAZACORT]
64 | > 46 | CN(CCOc1ccc(CC2SC(=O)NC2=O)cc1)c1ccccn1 (stereo unspecified) [ROSIGLITAZONE]
65 | > 46 | CNC(=N)NCCC[C@H](N)C(=O)O [L-NMMA]
66 | > 46 | CN1C(C)(C)CCCC1(C)C.O=C(O)C(O)C(O)C(=O)O [PEMPIDINE TARTRATE]
67 | > 46 | C[C@H]1COc2c(C3(N)CC3)c(F)cc3c(=O)c(C(=O)O)cn1c23 [PAZUFLOXACIN]
68 | > 46 | CN1CCC[C@@H]1CCO[C@](C)(c1ccccc1)c1ccc(Cl)cc1 [Clemastine fumarate]
69 | > 46 | CCOc1ccc(NC(C)=O)cc1 [Phenacetin]
70 | > 46 | COc1cc(C(=O)N2CCOCC2)cc(OC)c1OC [TRIMETOZINUM]
71 | > 46 | Cc1ncc([N+](=O)[O-])n1CCO [METRONIDAZOLE]
72 | > 46 | CN(C)CCCOC1C(C(O)CO)OC2OC(C)(C)O[C@@H]21.Cl (stereo partly specified) [AMIPRILOSE]
73 | > 46 | CC1(C)[C@@H]2CC[C@@]1(C)C(=O)C2 [Camphor]
74 | > 46 | C[S+](=O)([O-])OCCC[NH2+]CCCO[S+](C)(=O)[O-] [Improsulfan tosylate]
75 | > 46 | CCN(CC)C(=O)c1ccc(O)c(OC)c1 [Vanillic acid diethylamide]
76 | > 46 | CC(O)C1CCC2C3CCC4CC(O)CCC4(C)C3CCC12C (stereo unspecified) [Pregnandiol]
